Data reported in paper PMC9952520, “Anti-Biofilm Effects of Rationally Designed Peptides against Planktonic Cells and Pre-Formed Biofilm of Pseudomonas aeruginosa” (Antibiotics, 2023).
Ends that are not written are not given here.

Experiments:
[1] = tested on: Drug-Sensitive P. aeruginosa (ATCC 27853); assay: microbe, parasite or virus in culture; assay type: cell-based, Pseudomonas aeruginosa; conditions: microdilution, 10 mM sodium phosphate pH 7.2 + 20% MH broth, 24 h at 37 °C, turbidity OD600, triplicate
Procedure: (§1) Pseudomonas aeruginosa ATCC 27853 (drug-sensitive strain) was obtained from the American Type Culture Collection and drug-resistant P. aeruginosa (DRPa)-3904, 4830, 4891, 4007, and 5018 were isolated from patients with otitis media in a hospital. DRPa strains were obtained from GC Lab (Yongin-Si, Gyeonggi-do, Korea) for identification and antibiotic susceptibility testing. All strains were grown in a Mueller–Hinton (MH) broth containing 0.5% NaCl under an aerobic condition at 37 °C.
(§2) Pregrown bacteria were suspended in 10 mM sodium phosphate (SP, pH 7.2) supplemented with 20% MH broth. Evaluation of antibacterial effects in variable ionic strengths was performed with the following buffers: 10 mM HEPES, 10 mM NaCl, pH 7.4 + 10% MH (buffer I), 10 mM HEPES, 150 mM NaCl, pH 7.4 + 10% MH (buffer II), 10 mM HEPES, 5 mM MgCl2, pH 7.4 + 10% MH (buffer III), and 10 mM HEPES, 150 mM NaCl, 5 mM MgCl2, pH 7.4 + 10% MH (buffer IV). Fifty µL of the cell suspension (1 × 10^6 colony forming unit (CFU)/mL) was added to fifty µL of two-fold serially diluted peptide solutions and antibiotics (0.125–256 µM), followed by incubation for 24 h at 37 °C. The positive growth control was bacterial suspension without peptides and antibiotics and the negative control was only medium. MICs were evaluated by measuring the turbidity of cell solutions at OD600 and were defined as the lowest concentration of peptide or antibiotics that inhibited visible bacterial growth. The assays were performed in triplicate.

planktonic DRPa 4007 = assay: Growth inhibition of planktonic cells in BHI; assay type: cell-based, Pseudomonas aeruginosa; conditions: BHI broth, 24 h at 37 °C, OD600
Procedure: (§3) To investigate the growth inhibition of peptides and antibiotics against planktonic P. aeruginosa cells, a microdilution assay was applied. […] After 24 h incubation at 37 °C with agitation, the growth inhibition was calculated by the absorbance measurement of bacterial turbidity at 600 nm using a Microplate Reader (SpectraMax M5, Molecular Devices, Sunnyvale, CA, USA). The assay was performed in triplicate. The percentage of […] was calculated as follows:Growth inhibition (%) = 100 − ((OD600 in sample treatment − OD600 in untreated bacteria)/(OD600 in untreated sample − OD600 in untreated bacteria) × 100) Sample treatment: adding peptides or antibiotics in bacterial suspensions; untreated bacteria: culture medium without bacteria and samples; untreated sample: bacterial suspension without samples.

[2] = tested on: planktonic P. aeruginosa ATCC 27853; assay: Growth inhibition of planktonic cells in BHI; assay type: cell-based, Pseudomonas aeruginosa; conditions: BHI broth, 24 h at 37 °C, OD600
Procedure: as §3

[3] = tested on: Drug-Resistant P. aeruginosa (DRPa) 4007; assay: microbe, parasite or virus in culture; assay type: cell-based, Pseudomonas aeruginosa; conditions: microdilution, 10 mM sodium phosphate pH 7.2 + 20% MH broth, 24 h at 37 °C, OD600, triplicate
Procedure: as §1, §2

[4] = tested on: Drug-Resistant P. aeruginosa (DRPa) 4830; assay: microbe, parasite or virus in culture; assay type: cell-based, Pseudomonas aeruginosa; conditions: microdilution, 10 mM sodium phosphate pH 7.2 + 20% MH broth, 24 h at 37 °C, OD600, triplicate
Procedure: as §1, §2

[5] = tested on: P. aeruginosa ATCC 27853 biofilm; assay: Inhibition of biofilm formation, crystal violet staining; assay type: cell-based, Pseudomonas aeruginosa; conditions: BHI + 2% sucrose, 24 h at 37 °C, crystal violet OD570
Procedure: (§4) Sucrose was added to enhance bacterial biofilm formation. Unattached bacteria were removed by washing with SP buffer and the remaining biofilm was fixed with methanol for 15 min. After air-drying for 30 min at room temperature, the plate was stained with 0.1% crystal violet (CV) for 5 min, followed by carefully washing with water and adding 95% ethanol to each well. The absorbance of the plate at 570 nm was measured using a Microplate Reader. The experiment was performed in triplicate and the percentage of biofilm inhibition was calculated as follows:Biofilm inhibition (%) = 100 − ((OD570 in sample treatment − OD570 in untreated bacteria)/(OD570 in untreated sample − OD570 in untreated bacteria) × 100) Sample treatment: adding peptides or antibiotics in bacterial suspensions; untreated bacteria: culture medium without bacteria and samples; untreated sample: bacterial suspension without samples.

DRPa 4007 biofilm = assay: as above; assay type: cell-based; conditions: Pseudomonas aeruginosa, BHI + 2% sucrose, 24 h at 37 °C, crystal violet OD570, triplicate
Procedure: as §4

[6] = tested on: Drug-Resistant P. aeruginosa (DRPa) 3904; assay: microbe, parasite or virus in culture; assay type: cell-based, Pseudomonas aeruginosa; conditions: microdilution, 10 mM sodium phosphate pH 7.2 + 20% MH broth, 24 h at 37 °C, OD600, triplicate
Procedure: as §1, §2

[7] = tested on: Drug-Resistant P. aeruginosa (DRPa) 4891; assay: microbe, parasite or virus in culture; assay type: cell-based, Pseudomonas aeruginosa; conditions: microdilution, 10 mM sodium phosphate pH 7.2 + 20% MH broth, 24 h at 37 °C, OD600, triplicate
Procedure: as §1, §2

[8] = tested on: Drug-Resistant P. aeruginosa (DRPa) 5018; assay: microbe, parasite or virus in culture; assay type: cell-based, Pseudomonas aeruginosa; conditions: microdilution, 10 mM sodium phosphate pH 7.2 + 20% MH broth, 24 h at 37 °C, OD600, triplicate
Procedure: as §1, §2

[9] = tested on: Biofilm EPS of P. aeruginosa DRPa 4007; assay: Reduction of biofilm EPS components, fluorescent dyes and fluorescence microscopy; assay type: cell-based, Pseudomonas aeruginosa; conditions: 64 µM, 24 h incubation; FITC-ConA, Nile red, DAPI, SYPRO red
Procedure: Figure 4 Eliminative action of peptides in biofilm extracellular polymeric substances (EPS). Biofilm EPS of P. aeruginosa DRPa 4007 in the absence or presence of peptides (64 µM) was stained by FITC-ConA for carbohydrates, Nile red for lipids, DAPI for nucleic acids, and SYPRO red for proteins and observed under fluorescence microscopy.
To investigate the eliminating ability of peptide, EPS components were analyzed using fluorescence microplate and microscopic analyses. After following the processes described in Section 3.7, the biofilm was washed with SP buffer and stained using four fluorescent dyes (DAPI for nucleic acids, Nile red for lipids, FITC-ConA for carbohydrates, and SYPRO red for proteins).

[10] = tested on: P. aeruginosa DRPa 4007 biofilm; assay: SEM analysis of biofilm on plastic coverslips; assay type: cell-based, Pseudomonas aeruginosa; conditions: peptides 64 µM, ciprofloxacin 256 µM, 24 h on 48 h biofilm
Procedure: Figure 6 Image analysis of P. aeruginosa DRPa 4007 using scanning electron microscopy (SEM).
DRPa 4007 biofilms were formed on the plastic coverslips (12 mm dimension, SPL life science, Pocheon-si, Korea) for 48 h in BHI broth containing 2% (w/v) sucrose (1 × 10^8 CFU/mL) in a 24-well plate. […] The coverslips were rinsed using SP buffer and prefixed in 50 mM HEPES buffer (pH 8.0) containing 5% (v/v) glutaraldehyde for 2 h. After washing with SP buffer, they were dehydrated using the OTTIX shaper (Diapath S.p.A, Bergamo, Italy) and chemical-dried using hexamethyldisilazane. The coverslips coated with gold were observed under a field emission scanning electron microscopy (JSM-7100F, JEOL Ltd., Tokyo, Japan).

[11] = Pseudomonas aeruginosa, ATCC27853

Compound | MIC [3] | MIC [4] | further results
CC(C)(O/N=C(\C(=O)N[C@@H]1C(=O)N2C(C(=O)[O-])=C(C[n+]3ccccc3)CS[C@H]12)c1csc(N)n1)C(=O)O [Ceftazidime] | – | – | MIC [1, 11]: 1 µM; antibacterial activity against planktonic cells (planktonic DRPa 4007): remarkably inhibited; growth inhibition of planktonic cells [2]: at very low concentrations
WIRRIWRRIR-NH2 [WIR-10] | 2 µM | 4 µM | –
RRIIRRIWRW-NH2 [RIW-10] | 8 µM | 16 µM | –
WIKKIWKKIK-NH2 [WIK-10] | 8 µM | 8 µM | –
WIKKIWKKIIKEIK-NH2 [WIKE-14] | 8 µM | 8 µM | –
KKIIKKIWKW-NH2 [KIW-10] | 16 µM | 16 µM | –
Cc1onc(-c2ccccc2)c1C(=O)N[C@@H]1C(=O)N2[C@@H]1SC(C)(C)[C@@H]2C(=O)O [oxacillin] | – | – | inhibition of biofilm formation [5]: dose-dependent manner; inhibition at 64 µM (DRPa 4007 biofilm): 3.4%
RRIWRRWIRI-NH2 [RWI-10] | 8 µM | 4 µM | –
KKIIKKIIKKIWKW-NH2 [KIW-14] | 2 µM | 2 µM | –
NC[C@H]1O[C@H](O[C@H]2[C@H](O)[C@@H](O[C@H]3O[C@H](CO)[C@@H](O)[C@H](N)[C@H]3O)[C@H](N)C[C@@H]2N)[C@H](N)C[C@@H]1O [Tobramycin] | – | – | MIC [1, 11]: 0.25 µM
KKIWKKWIKKIIKI-NH2 [KWI-14] | 1 µM | 2 µM | –
CC[C@H](C)[C@H](NC(=O)CN)C(=O)NCC(=O)N[C@@H](C)C(=O)N[C@H](C(=O)N[C@@H](CC(C)C)C(=O)N[C@@H](CCCCN)C(=O)N[C@H](C(=O)N[C@@H](CC(C)C)C(=O)N[C@H](C(=O)N[C@H](C(=O)NCC(=O)N[C@@H](CC(C)C)C(=O)N1CCC[C@H]1C(=O)N[C@@H](C)C(=O)N[C@@H](CC(C)C)C(=O)N[C@H](C(=O)N[C@@H](CO)C(=O)N[C@@H](Cc1c[nH]c2ccccc12)C(=O)N[C@H](C(=O)N[C@@H](CCCCN)C(=O)N[C@@H](CCCNC(=N)N)C(=O)N[C@@H](CCCCN)C(=O)N[C@@H](CCCNC(=N)N)C(=O)N[C@@H](CCC(N)=O)C(=O)N[C@@H](CCC(N)=O)C(N)=O)[C@@H](C)CC)[C@@H](C)CC)[C@@H](C)O)[C@@H](C)O)C(C)C)C(C)C [Melittin] | 4 µM | 4 µM | MIC [6]: 2 µM; MIC [7]: 4 µM; MIC [8]: 4 µM; MIC [1]: 2 µM; removal of EPS components (carbohydrates, lipids, DNA, proteins) [9]: did not remove carbohydrates
O=C(O)c1cn(C2CC2)c2cc(N3CCNCC3)c(F)cc2c1=O [Ciprofloxacin] | – | – | MIC ([6]; Pseudomonas aeruginosa): > 256 µM; MIC ([3]; Pseudomonas aeruginosa): > 256 µM; MIC ([4]; Pseudomonas aeruginosa): 64 µM; MIC ([7]; Pseudomonas aeruginosa): > 256 µM; MIC ([8]; Pseudomonas aeruginosa): > 256 µM; MIC [1, 11]: 1 µM; antibacterial activity against planktonic cells (planktonic DRPa 4007): remarkably inhibited; growth inhibition of planktonic cells [2]: at very low concentrations; inhibition of biofilm formation [5]: dose-dependent manner; inhibition at 64 µM (DRPa 4007 biofilm): 2.3%; biofilm and bacteria on coverslip under SEM [10]: massive volume
KKIWKKWIKI-NH2 [KWI-10] | 8 µM | 8 µM | –
WIKKIWKKIIKKIK-NH2 [WIK-14] | 1 µM | 2 µM | –
